The values below are quoted from earlier work in patent US20020103139A1, “Solid self-emulsifying controlled release drug delivery system composition for enhanced delivery of water insoluble phytosterols and other hydrophobic natural compounds for body weight and cholestrol level control” (priority 2000, published 2002).

For data set [1] the following is noted: treated patients versus placebo.
For data set [2] the following is noted: doses of 700 and 300 mg.

Molecules are shown by their SMILES.

Regarding `CCN[C@@H](C)Cc1cccc(C(F)(F)F)c1` [dexfenfluramine], the “average weight lost more than with placebo” value in data set [1] is reported as 5 pounds.
`CCNC(C)Cc1cccc(C(F)(F)F)c1` (stereo not drawn) [fenfluramine]: in data set [1], the “average weight lost more than with placebo” value was 5 pounds.
As for `CC[C@H](CC[C@@H](C)[C@H]1CC[C@H]2[C@@H]3CC[C@H]4C[C@@H](O)CC[C@]4(C)[C@H]3CC[C@]12C)C(C)C` [sitostanol], the “difference in cholesterol reduction between doses” value in data set [2] is reported as “No significant difference”.
